The values below come from PubChem BioAssay (NCI).

By GI50 is commonly meant the concentration at which growth is held to half of that of the control. As usually defined, the TGI is the concentration giving total growth inhibition. The low end stands for greater sensitivity of the cells, the high end for lower sensitivity of the cells.

Among the test systems are OVCAR-5 ovarian; K-562 leukemia; SK-MEL-2 melanoma; MDA-MB-231 breast; MDA-MB-435; KM12 colon; HOP-62 NSCLC; HCT-116 colon; SW-620 colon; CAKI-1 renal.
Common to all, as to assay: DTP human tumour cell line panel, 48 h

SMILES strings stand for the structures.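 Tested at 5 concentrations; 48 h exposure; 96-well plates; endpoints linearly interpolated, else capped at highest concentration. Here, GI50 denotes the concentration required for 50% inhibition of growth. TGI: concentration producing complete growth inhibition.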 Where a SMILES comes first, the peptide text is derived from it. The star is where a group is joined. Trt = c1ccc(C(c2ccccc2)(c2ccccc2)*)cc1; Cbz = O=C(OCc1ccccc1)* Bounds are passed on as bounds.

Take `Cc1cc(Nc2nc(-c3ccncc3)nc3ccccc23)n[nH]1`: the GI50 with OVCAR-5 ovarian was greater than 100 µM; in the test on K-562 leukemia, 4.99 µM; in the test on SK-MEL-2 melanoma, 34300 nM; in the test with MDA-MB-231 breast, 14.7 µM; in the test with MDA-MB-435 it was 12100 nM; with KM12 colon, 0.335 µM. For the same molecule, the GI50 in the test on HOP-62 NSCLC was 11 µM; in the test on HCT-116 colon, 1990 nM; with SW-620 colon, 3710 nM; in the test with CAKI-1 renal, 580 nM. The TGI in the test with OVCAR-5 ovarian, in the test with K-562 leukemia, with SK-MEL-2 melanoma, in the test on MDA-MB-231 breast, with MDA-MB-435 and in the test with KM12 colon was greater than 100 µM in each case. Further, the TGI in the test on HOP-62 NSCLC, in the test with HCT-116 colon, in the test on SW-620 colon and with CAKI-1 renal was greater than 100 µM throughout.
With `COc1cc2c(cc1OCCCOc1ccc(-c3nc4ccc(N5CCN(C)CC5)cc4[nH]3)cc1)N=C[C@@H]1CCCN1C2=O`, the GI50 in the test on OVCAR-5 ovarian is less than 0.01 µM; in the test with K-562 leukemia, less than 0.01 µM; with SK-MEL-2 melanoma it was less than 10 nM; in the test on MDA-MB-231 breast, less than 0.01 µM; in the test on MDA-MB-435, less than 10 nM; in the test with KM12 colon it was less than 0.01 µM. In addition, the GI50 with HOP-62 NSCLC was less than 0.01 µM; with HCT-116 colon, less than 10 nM; in the test with SW-620 colon, less than 10 nM; with CAKI-1 renal it was less than 10 nM. Further, the TGI with K-562 leukemia is 0.818 µM; with SK-MEL-2 melanoma, less than 0.01 µM; in the test on MDA-MB-231 breast, less than 0.01 µM; in the test with MDA-MB-435 it was less than 0.01 µM; in the test with HOP-62 NSCLC, less than 0.01 µM; in the test with HCT-116 colon, greater than 37 µM. The TGI in the test on SW-620 colon is 15.2 µM; with CAKI-1 renal it was less than 0.01 µM.
On to `COC(=O)C(CSC(c1ccccc1)(c1ccccc1)c1ccccc1)NC(=O)C(CC(N)=O)NC(=O)OCc1ccccc1` (stereo not drawn) (Cbz-Asn-Cys(Trt)-OMe; configuration not given here), for which the GI50 with OVCAR-5 ovarian is 7.23 µM; with K-562 leukemia it was 3.16 µM; with SK-MEL-2 melanoma it was 2120 nM; with MDA-MB-231 breast it was 2.93 µM; in the test with MDA-MB-435 it was 2130 nM; with KM12 colon, 4.62 µM. Besides, the GI50 with HOP-62 NSCLC is 3.77 µM; in the test on HCT-116 colon, 2790 nM; with SW-620 colon, 7340 nM; in the test with CAKI-1 renal, 3510 nM. For the same molecule, the TGI was found to be 20.2 µM in the test on OVCAR-5 ovarian; 11.4 µM in the test on K-562 leukemia; 5.49 µM with SK-MEL-2 melanoma; 10.9 µM in the test with MDA-MB-231 breast; 5.2 µM with MDA-MB-435; 17 µM in the test with KM12 colon. For the same molecule, the TGI was determined as 14.7 µM in the test with HOP-62 NSCLC, 10.7 µM with HCT-116 colon, 23.7 µM in the test on SW-620 colon and 14.3 µM with CAKI-1 renal.
Turning to `COc1cccc2c1cc1c3c(cc4c(c32)OCO4)C(=O)N1`, the GI50 was 6.56 µM with OVCAR-5 ovarian; 8.89 µM in the test with K-562 leukemia; 16500 nM in the test with SK-MEL-2 melanoma; 7.9 µM with MDA-MB-231 breast; 10900 nM in the test with MDA-MB-435; 4.09 µM with KM12 colon. Also, the GI50 was 6.89 µM in the test on HOP-62 NSCLC, 3630 nM with HCT-116 colon, 4400 nM with SW-620 colon and 22400 nM in the test on CAKI-1 renal. The TGI in the test on OVCAR-5 ovarian was greater than 100 µM; in the test with K-562 leukemia, greater than 100 µM; in the test with SK-MEL-2 melanoma, 44.2 µM; with MDA-MB-231 breast, 47.2 µM; in the test on MDA-MB-435 it was greater than 100 µM; in the test on KM12 colon, 23.7 µM. Also, the TGI was 37.6 µM with HOP-62 NSCLC, 13.2 µM with HCT-116 colon, greater than 100 µM with SW-620 colon and greater than 100 µM with CAKI-1 renal.
As for `C=CC(C)(O)CC/C=C(\CO)C(=O)OC1C(C)OC(O[C@](C)(C=C)CC/C=C(\CO)C(=O)O[C@H]2C[C@@]3(C(=O)OC4OC(CO)C(O)C(O)C4OC4OC(C)C(OC5OC(CO)C(O)C5O)C(OC5OC(CO)C(O)C(O)C5O)C4O)C(CC2(C)C)C2=CCC4[C@@]5(C)CC[C@H](OC6OC(COC7OC(C)C(O)C(O)C7OC7OCC(O)C(O)C7O)C(O)C(O)C6NC(C)=O)C(C)(C)C5CC[C@@]4(C)[C@]2(C)C[C@H]3O)C(O)C1O` (some centres not stated), the GI50 is 1.38 µM with OVCAR-5 ovarian; 7.13 µM in the test with K-562 leukemia; 229 nM with SK-MEL-2 melanoma; 0.0722 µM in the test on MDA-MB-231 breast; 97.8 nM in the test with MDA-MB-435; 0.285 µM with KM12 colon. The GI50 in the test with HOP-62 NSCLC is 0.275 µM; in the test on HCT-116 colon it was 143 nM; in the test on SW-620 colon it was 143 nM; in the test on CAKI-1 renal, 196 nM. Besides, the TGI in the test on OVCAR-5 ovarian was determined as 5.95 µM; in the test with K-562 leukemia, 16.7 µM; in the test with SK-MEL-2 melanoma, 1.5 µM; in the test with MDA-MB-231 breast it was 0.39 µM; in the test on MDA-MB-435 it was 0.382 µM; in the test on KM12 colon, 1.98 µM. Moreover, the TGI turned out to be 1.58 µM with HOP-62 NSCLC, 6.93 µM in the test on HCT-116 colon, 4.27 µM in the test with SW-620 colon and 0.916 µM with CAKI-1 renal.
On to `O=C(C=C=Nc1ccccc1)C(=O)N=C=Cc1ccccc1`, for which the GI50 with OVCAR-5 ovarian was 2.88 µM; in the test with K-562 leukemia, 1.59 µM; with SK-MEL-2 melanoma, 1490 nM; in the test with MDA-MB-231 breast, 3.15 µM; in the test with MDA-MB-435 it was 2330 nM; with KM12 colon it was 6.38 µM. Also, the GI50 was 21.4 µM with HOP-62 NSCLC, 1550 nM with HCT-116 colon, 1720 nM in the test on SW-620 colon and 1730 nM in the test with CAKI-1 renal. The TGI came out at 11.8 µM with OVCAR-5 ovarian; 8.36 µM in the test with SK-MEL-2 melanoma; 10.4 µM in the test with MDA-MB-231 breast; 8 µM in the test with MDA-MB-435; 19.1 µM in the test on KM12 colon; 52.6 µM in the test on HOP-62 NSCLC. In addition, the results for the TGI in the test with HCT-116 colon, in the test with SW-620 colon and with CAKI-1 renal were 3.84 µM, 3.61 µM and 6.05 µM, respectively.
With `Nc1nc(N)c2c(n1)NC(c1sc(Cl)nc1Cl)CC(c1ccc3c(c1)OCO3)=N2` (configuration not stated), the GI50 is 6.03 µM in the test on OVCAR-5 ovarian; 0.542 µM in the test with K-562 leukemia; 5190 nM in the test with SK-MEL-2 melanoma; 5.81 µM with MDA-MB-231 breast; 353 nM in the test with MDA-MB-435; 3.93 µM in the test on KM12 colon. Further, the GI50 is 5.32 µM in the test on HOP-62 NSCLC, 3420 nM with HCT-116 colon, 2980 nM with SW-620 colon and 3170 nM in the test on CAKI-1 renal. For the same molecule, the TGI with OVCAR-5 ovarian was 33 µM; in the test with K-562 leukemia, greater than 100 µM; with SK-MEL-2 melanoma, 19 µM; with MDA-MB-231 breast it was 22.3 µM; with MDA-MB-435, 11.6 µM; in the test on KM12 colon, 21.4 µM. For the same molecule, the TGI was 22.3 µM in the test on HOP-62 NSCLC, 16.2 µM in the test with HCT-116 colon, 21.5 µM in the test with SW-620 colon and greater than 100 µM in the test on CAKI-1 renal.
